Common to all, as to experiment: cAMP activity assay in assay medium (assay 1)
Common to all, as to type: cell-based

In assay [1] the target is T1, Human GIPr (Homo sapiens, UniProt P48546).
T1 construct: expressed in transfected cells
T1 sequence (P48546 22-466): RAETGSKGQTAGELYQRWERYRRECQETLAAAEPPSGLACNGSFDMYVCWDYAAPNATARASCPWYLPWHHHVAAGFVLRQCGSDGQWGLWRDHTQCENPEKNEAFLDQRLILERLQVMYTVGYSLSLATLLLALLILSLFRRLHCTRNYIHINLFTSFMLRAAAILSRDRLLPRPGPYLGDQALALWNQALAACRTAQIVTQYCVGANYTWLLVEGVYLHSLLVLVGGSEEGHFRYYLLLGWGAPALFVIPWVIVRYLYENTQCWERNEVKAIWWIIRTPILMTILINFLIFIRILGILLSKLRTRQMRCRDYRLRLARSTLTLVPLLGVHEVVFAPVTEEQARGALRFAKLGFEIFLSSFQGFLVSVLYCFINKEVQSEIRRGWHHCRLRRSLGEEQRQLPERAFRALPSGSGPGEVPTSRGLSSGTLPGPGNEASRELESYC
Particulars: assay medium; Table 4; read-out: hGIPR EC50. From the text:
(§1) Biological Activity of Peptides in Cell-Based cAMP Activity Assay (Assay 1):
(§2) All sample dilutions were made in duplicate.

Assay [2] deals with Human GLP1R (Homo sapiens, UniProt P43220). More on the design: expressed in transfected cells. Particulars: assay medium; Table 4; read-out: hGLP1R EC50.
Human GLP1R, sequence (P43220 24-463): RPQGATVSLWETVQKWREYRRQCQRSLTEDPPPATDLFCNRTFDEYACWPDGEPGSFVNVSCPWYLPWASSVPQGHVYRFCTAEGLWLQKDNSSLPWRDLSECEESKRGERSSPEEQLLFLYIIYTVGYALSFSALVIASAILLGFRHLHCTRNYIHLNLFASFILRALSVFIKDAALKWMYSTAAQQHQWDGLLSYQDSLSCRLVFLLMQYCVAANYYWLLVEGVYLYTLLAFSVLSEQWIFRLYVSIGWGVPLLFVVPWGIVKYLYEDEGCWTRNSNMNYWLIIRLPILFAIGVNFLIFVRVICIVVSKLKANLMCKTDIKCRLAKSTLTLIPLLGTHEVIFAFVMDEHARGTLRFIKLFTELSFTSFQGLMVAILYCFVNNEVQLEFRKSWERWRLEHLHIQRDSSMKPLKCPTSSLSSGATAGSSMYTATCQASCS
From the text: as §1, §2

For assay [3], the target named is T2, Human GlucR (Homo sapiens, UniProt P47871).
T2 construct: expressed in transfected cells
T2 sequence (P47871 26-477): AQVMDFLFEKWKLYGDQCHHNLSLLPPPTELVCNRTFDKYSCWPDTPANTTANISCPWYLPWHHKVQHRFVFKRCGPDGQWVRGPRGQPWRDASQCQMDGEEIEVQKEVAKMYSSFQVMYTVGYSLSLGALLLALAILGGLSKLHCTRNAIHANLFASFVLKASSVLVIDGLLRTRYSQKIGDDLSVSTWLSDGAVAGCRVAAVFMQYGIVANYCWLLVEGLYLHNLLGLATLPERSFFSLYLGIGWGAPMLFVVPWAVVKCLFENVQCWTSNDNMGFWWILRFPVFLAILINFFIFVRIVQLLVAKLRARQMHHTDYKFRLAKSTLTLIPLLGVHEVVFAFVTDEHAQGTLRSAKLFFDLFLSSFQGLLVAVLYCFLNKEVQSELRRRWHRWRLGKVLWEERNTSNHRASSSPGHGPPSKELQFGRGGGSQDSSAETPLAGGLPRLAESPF
Particulars: assay medium; Table 4; read-out: hGlucR EC50.
From the text: as §1, §2

Several values for one entry are separate records, joined by “and”; a condition that tells them apart may be missing. Identical values can stand only once. Numbered stars: 1 amine (or outer) side, 2 acyl side, 3 side chain; on linkers, the order of the positions; unused ones are H or OH. Side chains are listed from the residue outwards. Ends that are not written are not given here. Peptide text beside a SMILES is read from it. * marks the point of attachment. γGlu = O=C(O)[C@H](CCC(=O)[*:2])N[*:1]; Palmitoyl = CCCCCCCCCCCCCCCC(=O)*; Ahx = NCCCCCC(=O)O

By EC50 is commonly meant the concentration at which the effect is half-maximal. `CCCCCCCCCCCCCCCC(=O)N[C@@H](CCC(=O)NCCCC[C@H](NC(=O)[C@H](Cc1ccc(O)cc1)NC(=O)[C@H](CCCCN)NC(=O)[C@H](CO)NC(=O)[C@H](Cc1ccc(O)cc1)NC(=O)[C@H](CC(=O)O)NC(=O)[C@H](CO)NC(=O)[C@@H](NC(=O)[C@H](Cc1ccccc1)NC(=O)[C@@H](NC(=O)CNC(=O)[C@H](CCC(N)=O)NC(=O)[C@H](CO)NC(=O)[C@@H](N)Cc1c[nH]cn1)[C@@H](C)O)[C@@H](C)O)C(=O)N[C@@H](CC(=O)O)C(=O)N[C@@H](CO)C(=O)N[C@@H](CCCNC(=N)N)C(=O)N[C@@H](CCCNC(=N)N)C(=O)N[C@@H](C)C(=O)N[C@@H](CCC(N)=O)C(=O)N[C@@H](CC(=O)O)C(=O)N[C@@H](Cc1ccccc1)C(=O)N[C@H](C(=O)N[C@@H](CCC(N)=O)C(=O)N[C@@H](Cc1c[nH]c2ccccc12)C(=O)N[C@@H](CC(C)C)C(=O)N[C@@H](CCC(=O)O)C(=O)N[C@@H](C)C(=O)NCC(=O)NCC(N)=O)C(C)C)C(=O)O` [g601] (H-HSQGTFTSDYSKYK([γGlu-Palmitoyl])DSRRAQDFVQWLEAGG-NH2; N-terminus assumed): the half-maximal effective concentration (EC50) stood at 74.1 nM in assay [1] and 0.0398 nM in assay [2].

`CCCCCCCCCCCCCCCC(=O)NCCCCCC(=O)NCCCC[C@H](NC(=O)[C@H](CO)NC(=O)[C@H](CC(=O)O)NC(=O)[C@H](CC(C)C)NC(=O)[C@H](Cc1ccc(O)cc1)NC(=O)[C@H](CCC(=O)O)NC(=O)[C@H](CO)NC(=O)[C@H](Cc1ccc(O)cc1)NC(=O)[C@H](CC(=O)O)NC(=O)[C@H](CO)NC(=O)[C@@H](NC(=O)[C@H](Cc1ccccc1)NC(=O)[C@@H](NC(=O)CNC(=O)[C@H](CCC(N)=O)NC(=O)CNC(=O)[C@@H](N)Cc1c[nH]cn1)[C@@H](C)O)[C@@H](C)O)C(=O)N[C@@H](CCCNC(=N)N)C(=O)N[C@@H](C)C(=O)N[C@@H](C)C(=O)N[C@@H](CC(=O)O)C(=O)N[C@@H](Cc1ccccc1)C(=O)N[C@H](C(=O)N[C@@H](C)C(=O)N[C@@H](Cc1c[nH]c2ccccc12)C(=O)N[C@@H](CC(C)C)C(=O)N[C@@H](CCC(=O)O)C(=O)N[C@@H](CCCNC(=N)N)C(=O)NCC(=O)NCC(N)=O)C(C)C` [g683]: the values for the EC50 in assay [1] and in assay [2] were 126 nM and 0.0159 nM, respectively.

`CCCCCCCCCCCCCCCC(=O)N[C@@H](CCC(=O)NCCCC[C@H](NC(=O)[C@H](CO)NC(=O)[C@H](CC(=O)O)NC(=O)[C@H](CC(C)C)NC(=O)[C@H](Cc1ccc(O)cc1)NC(=O)[C@H](CCCCN)NC(=O)[C@H](CO)NC(=O)[C@H](Cc1ccc(O)cc1)NC(=O)[C@H](CC(=O)O)NC(=O)[C@H](CO)NC(=O)[C@@H](NC(=O)[C@H](Cc1ccccc1)NC(=O)[C@@H](NC(=O)CNC(=O)[C@H](CCC(N)=O)NC(=O)CNC(=O)[C@@H](N)Cc1c[nH]cn1)[C@@H](C)O)[C@@H](C)O)C(=O)N[C@@H](CCCNC(=N)N)C(=O)N[C@@H](C)C(=O)N[C@@H](C)C(=O)N[C@@H](CC(=O)O)C(=O)N[C@@H](Cc1ccccc1)C(=O)N[C@H](C(=O)N[C@@H](C)C(=O)N[C@@H](Cc1c[nH]c2ccccc12)C(=O)N[C@@H](CC(C)C)C(=O)N[C@H](C(=O)N[C@@H](C)C(=O)NCC(=O)NCC(N)=O)C(C)C)C(C)C)C(=O)O` [g736] (H-HGQGTFTSDYSKYLDSK([γGlu-Palmitoyl])RAADFVAWLVAGG-NH2; N-terminus assumed): the EC50 in assay [3] was 0.919 nM and 0.92 nM; in assay [2], 0.0854 nM.

Consider `CCCCCCCCCCCCCCCC(=O)N[C@@H](CCC(=O)NCCCC[C@H](NC(=O)[C@H](CO)NC(=O)[C@H](CC(=O)O)NC(=O)[C@H](CC(C)C)NC(=O)[C@H](Cc1ccc(O)cc1)NC(=O)[C@H](CCCCN)NC(=O)[C@H](CO)NC(=O)[C@H](Cc1ccc(O)cc1)NC(=O)[C@H](CC(=O)O)NC(=O)[C@H](CO)NC(=O)[C@@H](NC(=O)[C@H](Cc1ccccc1)NC(=O)[C@@H](NC(=O)CNC(=O)[C@H](CCC(=O)O)NC(=O)CNC(=O)[C@@H](N)Cc1c[nH]cn1)[C@@H](C)O)[C@@H](C)O)C(=O)N[C@@H](CCCNC(=N)N)C(=O)N[C@@H](C)C(=O)N[C@@H](C)C(=O)N[C@@H](CC(=O)O)C(=O)N[C@@H](Cc1ccccc1)C(=O)N[C@H](C(=O)N[C@@H](C)C(=O)N[C@@H](Cc1c[nH]c2ccccc12)C(=O)N[C@@H](CC(C)C)C(=O)N[C@H](C(=O)N[C@@H](C)C(=O)NCC(=O)NCC(N)=O)C(C)C)C(C)C)C(=O)O` [g737] (H-HGEGTFTSDYSKYLDSK([γGlu-Palmitoyl])RAADFVAWLVAGG-NH2; N-terminus assumed), for which the EC50 in assay [3] is 734 nM; in assay [2] it was 0.0814 nM.

On to `CCCCCCCCCCCCCCCC(=O)N[C@@H](CCC(=O)NCCCC[C@H](NC(=O)[C@H](C)NC(=O)[C@H](CCCNC(=N)N)NC(=O)[C@H](CCCNC(=N)N)NC(=O)[C@H](CO)NC(=O)[C@H](CC(=O)O)NC(=O)[C@H](CC(C)C)NC(=O)[C@H](Cc1ccc(O)cc1)NC(=O)[C@H](CCCCN)NC(=O)[C@H](CO)NC(=O)[C@H](Cc1ccc(O)cc1)NC(=O)[C@H](CC(=O)O)NC(=O)[C@H](CO)NC(=O)[C@@H](NC(=O)[C@H](Cc1ccccc1)NC(=O)[C@@H](NC(=O)CNC(=O)[C@H](CCC(N)=O)NC(=O)[C@H](CO)NC(=O)[C@@H](N)Cc1c[nH]cn1)[C@@H](C)O)[C@@H](C)O)C(=O)N[C@@H](CC(=O)O)C(=O)N[C@@H](Cc1ccccc1)C(=O)N[C@H](C(=O)N[C@@H](CCC(N)=O)C(=O)N[C@@H](Cc1c[nH]c2ccccc12)C(=O)N[C@@H](CC(C)C)C(=O)N[C@@H](CCC(=O)O)C(=O)N[C@@H](C)C(=O)NCC(=O)NCC(N)=O)C(C)C)C(=O)O` [g744], for which the EC50 in assay [3] was 0.0392 nM; in assay [2], 2.45 nM.

As for `CCCCCCCCCCCCCCCC(=O)N[C@@H](CCC(=O)NCCCC[C@H](NC(=O)[C@@H](NC(=O)[C@H](Cc1ccccc1)NC(=O)[C@H](CC(=O)O)NC(=O)[C@H](CCC(N)=O)NC(=O)[C@H](C)NC(=O)[C@H](CCCNC(=N)N)NC(=O)[C@H](CCCNC(=N)N)NC(=O)[C@H](CO)NC(=O)[C@H](CC(=O)O)NC(=O)[C@H](CC(C)C)NC(=O)[C@H](Cc1ccc(O)cc1)NC(=O)[C@H](CCCCN)NC(=O)[C@H](CO)NC(=O)[C@H](Cc1ccc(O)cc1)NC(=O)[C@H](CC(=O)O)NC(=O)[C@H](CO)NC(=O)[C@@H](NC(=O)[C@H](Cc1ccccc1)NC(=O)[C@@H](NC(=O)CNC(=O)[C@H](CCC(N)=O)NC(=O)[C@H](CO)NC(=O)[C@@H](N)Cc1c[nH]cn1)[C@@H](C)O)[C@@H](C)O)C(C)C)C(=O)N[C@@H](Cc1c[nH]c2ccccc12)C(=O)N[C@@H](CC(C)C)C(=O)N[C@@H](CCC(=O)O)C(=O)N[C@@H](C)C(=O)NCC(=O)NCC(N)=O)C(=O)O` [g746], the EC50 in assay [3] came out at 0.0354 nM; in assay [2], 11.5 nM.

Consider `CCCCCCCCCCCCCCCC(=O)NCCCCCC(=O)NCCCC[C@H](NC(=O)[C@H](C)NC(=O)[C@H](CCCNC(=N)N)NC(=O)[C@H](CCC(=O)O)NC(=O)[C@H](CO)NC(=O)[C@H](CC(=O)O)NC(=O)[C@H](CC(C)C)NC(=O)[C@H](Cc1ccc(O)cc1)NC(=O)[C@H](CCCCN)NC(=O)[C@H](CO)NC(=O)[C@H](Cc1ccc(O)cc1)NC(=O)[C@H](CC(=O)O)NC(=O)[C@H](CO)NC(=O)[C@@H](NC(=O)[C@H](Cc1ccccc1)NC(=O)[C@@H](NC(=O)CNC(=O)[C@H](CCC(N)=O)NC(=O)[C@H](CO)NC(=O)[C@@H](N)Cc1c[nH]cn1)[C@@H](C)O)[C@@H](C)O)C(=O)N[C@@H](CC(=O)O)C(=O)N[C@@H](Cc1ccccc1)C(=O)N[C@H](C(=O)N[C@@H](C)C(=O)N[C@@H](Cc1c[nH]c2ccccc12)C(=O)N[C@@H](CC(C)C)C(=O)N[C@@H](CCC(=O)O)C(=O)N[C@@H](CCCNC(=N)N)C(=O)NCC(=O)NCC(N)=O)C(C)C` [g787] (H-HSQGTFTSDYSKYLDSERAK([Ahx-Palmitoyl])DFVAWLERGG-NH2; N-terminus assumed), for which the values for the EC50 in assay [3] and in assay [2] were 0.0436 nM and 6.65 nM, respectively.

`CCCCCCCCCCCCCCCC(=O)N[C@@H](CCC(=O)NCCCC[C@H](NC(=O)[C@H](Cc1ccc(O)cc1)NC(=O)[C@H](CCCNC(=N)N)NC(=O)[C@H](CO)NC(=O)[C@H](Cc1ccc(O)cc1)NC(=O)[C@H](CC(=O)O)NC(=O)[C@H](CO)NC(=O)[C@@H](NC(=O)[C@H](Cc1ccccc1)NC(=O)[C@@H](NC(=O)CNC(=O)[C@H](CCC(N)=O)NC(=O)[C@H](CO)NC(=O)[C@@H](N)Cc1c[nH]cn1)[C@@H](C)O)[C@@H](C)O)C(=O)N[C@@H](CC(=O)O)C(=O)N[C@@H](CO)C(=O)N[C@@H](CCC(=O)O)C(=O)N[C@@H](CCCNC(=N)N)C(=O)N[C@@H](C)C(=O)N[C@@H](CCCNC(=N)N)C(=O)N[C@@H](CC(=O)O)C(=O)N[C@@H](Cc1ccccc1)C(=O)N[C@H](C(=O)N[C@@H](C)C(=O)N[C@@H](Cc1c[nH]c2ccccc12)C(=O)N[C@@H](CC(C)C)C(=O)N[C@H](C(=O)N[C@@H](C)C(=O)NCC(=O)NCC(N)=O)C(C)C)C(C)C)C(=O)O` [g821]: the figures for the EC50 in assay [3] and in assay [2] were 0.00463 nM and 0.0558 nM, respectively.

Take “HSQGTFTSDYSKYLDSRRAQDFVQWLVRGGPSSGAPPPSK-NH2 [g319]”: the values for the 50% effective concentration (EC50) in assay [3] and in assay [2] were 0.0104 nM and 0.0361 nM, respectively.

The values are drawn from patent publication US20200354426A1 (MEDIMMUNE LIMITED, priority 2016, published 2020).
